Values of other authors, collected in patent US20200316072A1, “COMPOUNDS FOR USE IN REGULATING FOLLICLE MATURATION” (AARHUS UNIVERSITET, priority 2017, published 2020).

System: IGF/Akt/mTOR signaling pathway
Conditions: stated as prior knowledge on the DPP4 inhibitor; test system not given

CC#CCn1c(N2CCC[C@@H](N)C2)nc2c1c(=O)n(Cc1nc(C)c3ccccc3n1)c(=O)n2C [Linagliptin, 8-[(3R)-3-aminopiperidin-1-yl]-7-but-2-ynyl-3-methyl-1-[(4-methylquinazolin-2-yl)methyl]purine-2,6-dione]
phosphorylated protein expression of IGF/Akt/mTOR signaling pathway: alleviated
